From PubChem BioAssay (NCI)
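1) Cells in 96-well plates. 2) Compound, 48 h, 5 concentrations. 3) Linear interpolation between surrounding doses. 4) Unreached endpoint = highest concentration. GI50: concentration for 50% inhibition of growth. TGI: concentration producing complete growth inhibition.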

Assays:
Assay in all cases: growth of human tumour cells (NCI), 48 h
[1] = tested on: 786-0 renal
[2] = tested on: A498 renal
[3] = tested on: A549 NSCLC
[4] = tested on: ACHN renal
[5] = tested on: BT-549 breast
[6] = tested on: CAKI-1 renal
[7] = tested on: CCRF-CEM leukemia
[8] = tested on: COLO 205 colon
[9] = tested on: DU-145 prostate
[10] = tested on: HCC-2998 colon
[11] = tested on: HCT-116 colon
[12] = tested on: HCT-15 colon
[13] = tested on: HL-60(TB) leukemia
[14] = tested on: HOP-62 NSCLC
[15] = tested on: HOP-92 NSCLC
[16] = tested on: HS 578T breast
[17] = tested on: HT29 colon
[18] = tested on: IGROV1 ovarian
[19] = tested on: K-562 leukemia
[20] = tested on: KM12 colon
[21] = tested on: LOX IMVI melanoma
[22] = tested on: M14 melanoma
[23] = tested on: MALME-3M melanoma
[24] = tested on: MCF7 breast
[25] = tested on: MDA-MB-231 breast
[26] = tested on: MDA-MB-435
[27] = tested on: MOLT-4 leukemia
[28] = tested on: NCI-H226 lung
[29] = tested on: NCI-H23 lung
[30] = tested on: NCI-H460 lung
[31] = tested on: NCI-H522 lung
[32] = tested on: NCI/ADR-RES ovarian
[33] = tested on: OVCAR-3 ovarian
[34] = tested on: OVCAR-4 ovarian
[35] = tested on: OVCAR-5 ovarian
[36] = tested on: OVCAR-8 ovarian
[37] = tested on: PC-3 prostate
[38] = tested on: RPMI-8226 leukemia
[39] = tested on: RXF 393 renal
[40] = tested on: SF-268 CNS
[41] = tested on: SF-295 CNS
[42] = tested on: SF-539 CNS
[43] = tested on: SK-MEL-2 melanoma
[44] = tested on: SK-MEL-28 melanoma
[45] = tested on: SK-MEL-5 melanoma
[46] = tested on: SK-OV-3 ovarian
[47] = tested on: SN12C renal
[48] = tested on: SNB-19 CNS
[49] = tested on: SNB-75 CNS
[50] = tested on: SR leukemia
[51] = tested on: SW-620 colon
[52] = tested on: T-47D breast
[53] = tested on: TK-10 renal
[54] = tested on: U251 CNS
[55] = tested on: UACC-62 melanoma
[56] = tested on: UO-31 renal

SMILES: Cc1[c-]onc1C.Cc1[c-]onc1C.[Ag].[Ag].[NH-]S(=O)(=O)c1ccc(N=Nc2cc(N=Nc3ccc(S([NH-])(=O)=O)cc3)c3c(NC(=O)C(Cl)Cl)cccc3c2OC(=O)C(Cl)Cl)cc1
- GI50 [1]: 8.87 µM
- TGI [1]: 16.4 µM
- GI50 [2]: 13 µM
- TGI [2]: 44.6 µM
- GI50 [3]: 11 µM
- TGI [3]: > 50 µM
- GI50 [4]: 5.13 µM
- TGI [4]: 11.9 µM
- GI50 [5]: 7.57 µM
- TGI [5]: 14.8 µM
- GI50 [6]: 7.12 µM
- TGI [6]: 14.2 µM
- GI50 [7]: 9.28 µM
- TGI [7]: 32.7 µM
- GI50 [8]: 5.15 µM
- TGI [8]: 30.4 µM
- GI50 [9]: 7.38 µM
- TGI [9]: 14.8 µM
- GI50 [10]: 10.9 µM
- TGI [10]: 26 µM
- GI50 [11]: 5.12 µM
- TGI [11]: 18.2 µM
- GI50 [12]: 9.82 µM
- TGI [12]: 32.1 µM
- GI50 [13]: 11 µM
- TGI [13]: 26.7 µM
- GI50 [14]: 16.8 µM
- TGI [14]: 38.9 µM
- GI50 [15]: 7.85 µM
- TGI [15]: 18.4 µM
- GI50 [16]: 5.81 µM
- TGI [16]: > 50 µM
- GI50 [17]: 9.29 µM
- TGI [17]: 21.7 µM
- GI50 [18]: 6.53 µM
- TGI [18]: 26.4 µM
- GI50 [19]: 3.99 µM
- TGI [19]: 32.2 µM
- GI50 [20]: 7.44 µM
- TGI [20]: 18.1 µM
- GI50 [21]: 7.75 µM
- TGI [21]: 18.3 µM
- GI50 [22]: 8.18 µM
- TGI [22]: 18.4 µM
- GI50 [23]: 9.07 µM
- TGI [23]: 21.2 µM
- GI50 [24]: 2.12 µM
- TGI [24]: > 50 µM
- GI50 [25]: 5.44 µM
- TGI [25]: 19.1 µM
- GI50 [26]: 7.87 µM
- TGI [26]: 16.3 µM
- GI50 [27]: 8.18 µM
- TGI [27]: 28.1 µM
- GI50 [28]: 12.6 µM
- TGI [28]: > 50 µM
- GI50 [29]: 8.3 µM
- TGI [29]: 22.8 µM
- GI50 [30]: 6.53 µM
- TGI [30]: 18.1 µM
- GI50 [31]: 1.75 µM
- TGI [31]: 14 µM
- GI50 [32]: 21 µM
- TGI [32]: > 50 µM
- GI50 [33]: 7.6 µM
- TGI [33]: 15.8 µM
- GI50 [34]: 7.66 µM
- TGI [34]: 15.1 µM
- GI50 [35]: 9.92 µM
- TGI [35]: 19 µM
- GI50 [36]: 10.1 µM
- TGI [36]: 36.4 µM
- GI50 [37]: 6.82 µM
- TGI [37]: > 50 µM
- GI50 [38]: 9.27 µM
- TGI [38]: 27.2 µM
- GI50 [39]: 6.47 µM
- TGI [39]: 15.6 µM
- GI50 [40]: 8.78 µM
- TGI [40]: 28.1 µM
- GI50 [41]: 33.9 µM
- TGI [41]: > 50 µM
- GI50 [42]: 14.2 µM
- TGI [42]: > 50 µM
- GI50 [43]: 6.89 µM
- TGI [43]: 15.9 µM
- GI50 [44]: 8.18 µM
- TGI [44]: 17 µM
- GI50 [45]: 1.71 µM
- TGI [45]: 6.07 µM
- GI50 [46]: 9.66 µM
- TGI [46]: 18.5 µM
- GI50 [47]: 14.9 µM
- TGI [47]: > 50 µM
- GI50 [48]: 7.38 µM
- TGI [48]: 16.9 µM
- GI50 [49]: 6.85 µM
- TGI [49]: 18.9 µM
- GI50 [50]: 9.59 µM
- TGI [50]: 42.5 µM
- GI50 [51]: 3.54 µM
- TGI [51]: 12.8 µM
- GI50 [52]: 2.1 µM
- TGI [52]: 17.4 µM
- GI50 [53]: 10 µM
- TGI [53]: 18.2 µM
- GI50 [54]: 8.45 µM
- TGI [54]: 18.8 µM
- GI50 [55]: 7.36 µM
- TGI [55]: 14.5 µM
- GI50 [56]: 6.06 µM
- TGI [56]: 12.8 µM
